According to US20150238441A1, “Modulation of Branched Amino Acid Concentrations to Treat Metabolic Diseases” (UNIVERSITY OF ROCHESTER, priority 2012, published 2015):

Legend:
C57BL/6 mice = experiment: Plasma metabolite levels in mice after a single 1 mg/kg oral gavage dose of NTBC (GC/MS and LC/MS/MS); type: in vivo; details: single aqueous 1 mg/kg dose by oral gavage, plasma 6 h following dosing, male C57BL/6 mice
Experimental: For example, six male C57BL/6 mice (20-25 gm, 8-9 weeks age) were administered a single aqueous 1 mg/kg dose of NTBC by oral gavage. Plasma samples were taken 6 h following dosing. […] We conclude that NTBC can be used to reduce plasma BCAA levels in mice. It should be noted that an early study reported that plasma BCAA levels were unaffected after dosing rats with 10 mg/kg NTBC for 11 weeks (Lock et al., 1996).
The dosing solutions were prepared the day of study dosing, approximately one hour prior to dosing. Compound 1 is nitisinone (also referred to herein as “NTBC”).
54 C56BL/6 mice were housed for at least 3 days prior to dosing and were fully acclimated at study start. All mice were ad libitum fed throughout the study. Water was given ad libitum throughout the holding and study periods. Body weight was measured prior to dosing. Dosing for Group 2 and 3 occurred once on the day of study.
Blood collection (approximately 600 μL) was into pre-chilled (0-4° C.) K3-EDTA containing polypropylene blood collection tubes. After blood collection, blood samples were maintained chilled (2-6° C.) and centrifuged within 30 minutes. […]
Samples were extracted and split into equal parts for analysis on GC/MS and LC/MS/MS platforms. Proprietary software was used to match ions to a library of standards for metabolite identification and for metabolite quantitation by peak area integration.

patients = patients taking the drug; cited from earlier work

O=C1CCCC(=O)C1C(=O)c1ccc(C(F)(F)F)cc1[N+](=O)[O-] [Compound 1, nitisinone]
reduction of plasma levels of valine, isoleucine and leucine (BCAAs) (C57BL/6 mice): greater than 25%

CN(C)C(=N)N=C(N)N [metformin]
patients who suffer gastrointestinal side effects (patients): More than 60%
